Several values for one entry are separate records, joined by “and”; a condition that tells them apart may be missing. Equal values may be shown once. Read-outs that look alike come from different tables or passages of the source.
Assays:
Corn [1] = assay: Greenhouse test, combination of Procedures II and III: insecticide in-furrow or in cover layer, herbicide and antidote incorporated in cover layer (Examples 1-3, 6; Tables 1-3, 6); assay type: in vivo; details: for % Injury Corn / % Corn Injury PN 3320 / % Corn Injury PN 3377: 3 weeks; for Percent Injury Corn: 7 weeks
[2] = system: velvetleaf (Abutilon theophrasti); assay: Greenhouse test, combination of Procedures II and III (Examples 1, 2; Tables 1, 2); assay type: in vivo; details: for % Injury VELE: 3 weeks; for Percent Injury VELE: 7 weeks
Corn [3] = assay: Greenhouse test in sterile vs. unsterile soils (chemicals and procedures of Example 6); assay type: in vivo; details: Herbicide No. 1
Protocol: Other greenhouse tests were conducted involving the same chemicals and procedures used in Example 6, to determine any effects from microbial breakdown relative to interactions between the herbicide and insecticides in sterile vs. unsterile soils. […] This finding comports with reports in the trade that organophosphates are known to suffer microbial breakdown due to soil microbes.

Shattercane (SHCA) = assay type: in vivo
Velvetleaf (VELE) [4] = assay type: in vivo, Abutilon theophrasti
Giant foxtail (GIFT) [5] = assay: whole plant or invertebrate; assay type: in vivo; details: in vivo
Velvetleaf (VELE) [6] = assay: whole plant or invertebrate; assay type: in vivo, Abutilon theophrasti; details: in vivo
cotton (COTT) = assay: Multi-crop greenhouse test, biocide, herbicide and safener applied to soil covers (Examples 65, 66; Tables 64, 65); assay type: in vivo; set-up: inhibition: dose or concentration left out as unconfirmed; details: Gossypium hirsutum, soil, Biocide No. 1 8.96 Kg/Ha alone
Protocol: (§1) Tests according to this invention in various crops indicate widespread application of the invention. In Examples 62-66 below are described tests with a variety of herbicides contacted with COUNTER® 15G in the presence and absence of MON-7400 (Antidote No. 12); MON-13900 (No. 1); MON-4660 (No. 16) and flurazole (No. 16). Those tests were conducted according to Procedures IV or V described above and illustrated further in other foregoing examples. Plants used in all tests were, for crops (as abbreviated in parentheses); cotton (COTT); soybean (SOBE); CORN, grain sorghum (GRSO); wheat (WHEA) and RICE, and the weeds giant foxtail (GIFT) and velvetleaf (VELE). The data in the tables below represent averages of two replications.
(§2) In this test the crops and weeds were planted 1.3 cm deep in 13.7 cm X 27.7 cm pans containing Dupo silt loam soil. The test safeners were applied in acetone solution and COUNTER 15G as dry granules to soil cover layers and incorporated by shaking in a bag. Treated cover layers were placed on seeded pans which were transferred to greenhouse benches and subirrigated. Herbicide was applied POE six (6) days after PPI initiation and observations of plant injury made ten (10) days later; results are shown in Table 61. The herbicide used in this example was BEACON (No. 8).
In another test in the several crops and weeds used in this test series, the herbicidal component was MON-12000 (No. 1); the other components were the same. the procedure used in this test was the same as that described in Example 62, modified to use a light overhead irrigation (about 0.32 cm/day) during days 4-7 of the test.
In yet another test in this series, XRD-498 (Herbicide No. 21) was used as the herbicidal component in contact with COUNTER 15G in the presence of the above safeners. The various components of the system (biocide, herbicide and safener) were applied concurrently to soil covers of the seeded plants.

Corn [7] = assay: Multi-crop greenhouse test, soil-applied (Examples 65, 66; Tables 64, 65); assay type: in vivo; set-up: inhibition: dose or concentration left out as unconfirmed; details: Zea mays, Biocide No. 1 8.96 Kg/Ha alone
Protocol: as §1, §2
(§3) In another test in the several crops and weeds used in this test series, the herbicidal component was MON-12000 (No. 1); the other components were the same. the procedure used in this test was the same as that described in Example 62, modified to use a light overhead irrigation (about 0.32 cm/day) during days 4-7 of the test. Table 64 […]

Giant foxtail (GIFT) [8] = assay: as above; assay type: in vivo; set-up: inhibition: dose or concentration left out as unconfirmed; details: Setaria faberi, Biocide No. 1 8.96 Kg/Ha alone
Protocol: as §1, §2, §3

RICE = assay: as above; assay type: in vivo; set-up: inhibition: dose or concentration left out as unconfirmed; details: Oryza sativa, Biocide No. 1 8.96 Kg/Ha alone
Protocol: as §1, §2, §3

grain sorghum (GRSO) = assay: as above; assay type: in vivo; set-up: inhibition: dose or concentration left out as unconfirmed; details: Sorghum, Biocide No. 1 8.96 Kg/Ha alone
Protocol: as §1, §2, §3

soybean (SOBE) = assay: as above; assay type: in vivo; set-up: inhibition: dose or concentration left out as unconfirmed; details: Glycine max, Biocide No. 1 8.96 Kg/Ha alone
Protocol: as §1, §2, §3

wheat (WHEA) = assay: as above; assay type: in vivo; set-up: inhibition: dose or concentration left out as unconfirmed; details: Triticum aestivum, Biocide No. 1 8.96 Kg/Ha alone
Protocol: as §1, §2, §3

Velvetleaf (VELE) [9] = assay: as above; assay type: in vivo, Abutilon theophrasti; set-up: inhibition: dose or concentration left out as unconfirmed; details: Abutilon theophrasti, Biocide No. 1 8.96 Kg/Ha alone
Protocol: as §1, §2, §3

Corn [10] = system: Corn
Corn [11] = details: in vivo
Corn [12] = assay: Greenhouse test Procedure II: herbicide, insecticide and antidote incorporated in cover layer (Example 4; Table 4); assay type: in vivo; details: Insecticide 2 3.36 kg/Ha alone; 3 weeks
Protocol: (§4) Containers were filled and compacted with a fumigated silt loam top soil to a depth of about 1.3 cm from the top of the container. A first container was designated as an untreated control, a second container was designated as a herbicide control, and a third container was designated as a herbicide + antidote test container. Each of the containers was seeded with a crop species. A measured amount of herbicide dispersed or dissolved in acetone was applied to a measured quantity of soil. To this same quantity of soil treated with herbicide, there was added a measured amount of antidote dispersed or dissolved in acetone. The quantity of soil treated with the herbicide and antidote was thoroughly mixed to incorporate the herbicide and antidote in the soil uniformly. The seed bed in the third container of soil was covered with the soil treated with the herbicide and antidote and the container was leveled. For each test series, the seed beds of the first and second containers were likewise covered by soil layers. the cover layer of the first container was not treated with herbicide or antidote.
(§5) This procedure is the same as Procedure I, but modified in the manner that after incorporation of the chemicals (herbicide, antidote and insecticide), the containers with the covered seedbed were treated with an initial overhead irrigation equivalent to 0.6 cm rainfall, then subsequently sub-irrigated as required on greenhouse benches.
(§6) The procedure used in this test was Procedure No. 2 above. Formulations of herbicide, insecticide and antidote were applied via track sprayer sequentially onto cover layers, incorporated into the soil which was spread over seedbeds, then irrigated from above with 0.6 cm water. Observations were made three (3) weeks after treatment.

VELE (velvetleaf) [13] = assay: Greenhouse test Procedure II (Example 4; Table 4); assay type: in vivo, Abutilon theophrasti; details: Insecticide 2 3.36 kg/Ha alone; 3 weeks
Protocol: as §4, §5, §6

Corn [14] = assay: Greenhouse test Procedure I with PPI or POE herbicide and foliar insecticide (Example 5; Table 5); assay type: in vivo
Protocol: as §4
(§7) Insecticide application was made as described in the tests in the examples below. The containers were then placed on a bench in a greenhouse and sub-irrigated as required for the duration of the test.
(§8) Said herbicide and antidote were sequentially pipetted onto cover layers, which were spread over the seed beds and subirrigated as in Procedure I and allowed to grow to a height of about 10 cm over a period of 11 days. Herbicide No. 1 and Insecticide No. 2 were then sequentially sprayed on the plant foliage. Observations were made three (3) weeks after initial treatment, 10 days after foliar treatment).

VELE (velvetleaf) [15] = assay: as above; assay type: in vivo, Abutilon theophrasti
Protocol: as §4, §7, §8

[16] = Ex. 2: Insecticide 1 0.23 Kg/305m alone
[17] = Ex. 6: Insecticide 1 0.23 Kg/305m alone
[18] = Insecticide 1 0.23 kg/305m alone
[19] = Insecticide 1 (H2O) (crystals scattered in-furrow) alone
[20] = Ex. 12: Biocide No. 1 8.96 Kg/Ha PPI alone, 13 days after planting
[21] = no antidote, […], observed 10 days after herbicide application
[22] = Ex. 2: Insecticide 2 3.36 kg/Ha alone
[23] = Ex. 6: Insecticide 2 0.23 Kg/305m alone
[24] = Insecticide 2 1.68 Kg/Ha, herbicide cell '-', mode POE (so in the source)
[25] = Table 14: no antidote, Herbicide No. 7 0.84 Kg/Ha POE and/or Biocide No. 2 8.96 Kg/Ha PPI, per label, 13 days after planting
[26] = no antidote, […], 13 days after planting

CCOP(=S)(OCC)SCSC(C)(C)C [Biocide No. 1, S-[[(1,1-dimethyl-ethyl)thio]-methyl]O,O-diethylphosphorodithioate, reference compound]
% Injury Corn (Corn [1]; [16]): 3%
% Corn Injury PN 3320 (Corn [1]; [17]): 0%
% Corn Injury PN 3377 (Corn [1]; [17]): 0%
Percent Injury Corn (Corn [1]; [18]): 0%
Percent Injury Corn (Corn [1]; [19]): 0%
% Injury VELE [2, 16]: 0%
Percent Injury VELE [2, 18]: 0%
Percent Injury VELE [2, 19]: 0%
interactions with herbicide in unsterile vs. sterile soil (Corn [3]): did not appear to be reduced
% Inhibition SHCA (Shattercane (SHCA); [20]): 25%
% Inhibition SHCA (Shattercane (SHCA); [21]): 20%
% Inhibition VELE (Velvetleaf (VELE) [4]; [21]): 15%
% Inhibition GIFT (Giant foxtail (GIFT) [5]): 10% and 20%
% Inhibition VELE (Velvetleaf (VELE) [6]): 0%
inhibition (cotton (COTT); Table 64): 0%
inhibition (cotton (COTT); Table 65): 0%
inhibition (Corn [7]; Table 64): 0%
inhibition (Corn [7]; Table 65): 0%
inhibition (Giant foxtail (GIFT) [8]; Table 64): 30%
inhibition (Giant foxtail (GIFT) [8]; Table 65): 30%
inhibition (RICE; Table 64): 10%
inhibition (RICE; Table 65): 0%
inhibition (grain sorghum (GRSO); Table 64): 0%
inhibition (grain sorghum (GRSO); Table 65): 0%
inhibition (soybean (SOBE); Table 64): 0%
inhibition (soybean (SOBE); Table 65): 0%
inhibition (wheat (WHEA); Table 64): 0%
inhibition (wheat (WHEA); Table 65): 0%
inhibition (Velvetleaf (VELE) [9]; Table 64): 0%
inhibition (Velvetleaf (VELE) [9]; Table 65): 0%
% Inhibition Corn (Corn [10]; [20]): 5%
effect on corn before application of the herbicide (Corn [10]; in vivo): slight early stunting and leaf malformation
% Inhibition Corn (Corn [11]): 5% and 0%

CCOP(=S)(OCC)Oc1nc(Cl)c(Cl)cc1Cl [Biocide No. 2, O,O-Diethyl O-(3,5,6-trichloro-2-pyridyl)phosphorothioate, reference compound]
% Injury Corn (Corn [1]; [22]): 8%
% Corn Injury PN 3320 (Corn [1]; [23]): 0%
% Corn Injury PN 3377 (Corn [1]; [23]): 0%
Percent Injury Corn (Corn [1]; Insecticide 2 3.36 kg/ha alone): 0%
% Injury VELE [2, 22]: 3%
Percent Injury VELE ([2]; Insecticide 2 3.36 kg/ha alone): 0%
% Injury Corn (Corn [12]): 0%
% Injury VELE (VELE (velvetleaf) [13]): 0%
% Injury Corn (Corn [14]; Insecticide 2 1.68 Kg/Ha alone): 0%
% Injury Corn (Corn [14]; [24]): 35%
% Injury VELE (VELE (velvetleaf) [15]; Insecticide 2 1.68 Kg/Ha alone): 0%
% Injury VELE (VELE (velvetleaf) [15]; [24]): 60%
interactions with herbicide in unsterile vs. sterile soil (Corn [3]): did not appear to be reduced
% Inhibition SHCA (Shattercane (SHCA); [25]): 0%
% Inhibition SHCA (Shattercane (SHCA); in vivo): 30%
% Inhibition SHCA (Shattercane (SHCA); [26]): 25%
% Inhibition VELE (Velvetleaf (VELE) [4]; [25]): 0%
% Inhibition VELE (Velvetleaf (VELE) [4]; in vivo): 0%
% Inhibition VELE (Velvetleaf (VELE) [4]; [26]): 0%
% Inhibition GIFT (Giant foxtail (GIFT) [5]): 45% and 70%
% Inhibition Corn (Corn [10]; [25]): 0%
% Inhibition Corn (Corn [10]; in vivo): 0%
% Inhibition Corn (Corn [10]; [26]): 0%
% Inhibition Corn (Corn [11]): 0%

— EP0565593B1, “REDUCING PESTICIDAL INTERACTIONS IN CROPS” (priority 1990, dated 1992)
